# From the supplement of paper PMC10307832
# Compound: CCn1c(-c2nonc2N)nc2c(C#CC(C)(C)O)ncc(OC[C@H]3CCCNC3)c21 + COc1cc2c(Oc3ccc(NC(=O)C4(C(=O)Nc5ccc(F)cc5)CC4)cc3F)ccnc2cc1OCCCN1CCOCC1 [Foretinib] (partner 0.25 µM)
# Test: relative viability (nuclei count vs DMSO), 5 days (fraction); higher = more cells survive
# Details: first compound 0.01 µM
# Procedure, shortened: (§1)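 Lung cancer cell lines were pin-tool dosed in 1536-well plates on the day after seeding, with either a lone drug or a fixed anchor-drug dose plus five library-drug doses (not always all listed) in √10 steps. Nuclei were counted on 4× images after 5 days. Relative viability is the ratio of treated-well to vehicle-well nuclei counts, with each value a median of duplicate plates.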
row,Cell Line,relative viability
1,NCI-H1623,0.855
2,NCI-H727,0.833
3,NCI-H1650,1.07
4,EBC-1,0.106
5,NCI-H1703,0.333
6,NCI-H1993,0.693
7,SW 1573,0.89
8,NCI-H838,0.969
9,LCLC-103H,0.792
10,NCI-H520,0.743
11,NCI-H2126,1.1
12,EMC-BAC-2,1.06
13,NCI-H2085,0.857
14,Calu-6,0.85
15,HCC-366,0.931
16,NCI-H1666,0.946

row,Cell Line,relative viability
1,NCI-H596,0.895
2,LK-2,0.994
3,NCI-H2087,0.927
4,NCI-H2342,1.1
5,SK-MES-1,0.908
6,H3255,0.833
7,COR-L23,0.835
8,IA-LM,0.955
9,A549,0.92
10,SW 900,0.92
11,NCI-H661,1.01
12,NCI-H1299,1.09
13,NCI-H1563,0.989
14,ABC-1,1.04
15,NCI-H358,0.646
16,NCI-H650,1.01

# Same assay, conditions: first compound 0.03162 µM
row,Cell Line,relative viability
1,NCI-H1623,0.849
2,NCI-H727,1.22
3,NCI-H1650,1.01
4,EBC-1,0.0912
5,NCI-H1703,0.313
6,NCI-H1993,0.835
7,SW 1573,0.799
8,NCI-H838,1.08
9,LCLC-103H,0.981
10,NCI-H520,0.902
11,NCI-H2126,1.16
12,EMC-BAC-2,1.02
13,NCI-H2085,0.901
14,Calu-6,0.86
15,HCC-366,0.99
16,NCI-H1666,0.957

row,Cell Line,relative viability
1,NCI-H596,1
2,LK-2,1.15
3,NCI-H2087,1.06
4,NCI-H2342,1.19
5,SK-MES-1,0.876
6,H3255,0.826
7,COR-L23,1.08
8,IA-LM,1.02
9,A549,1.08
10,SW 900,0.887
11,NCI-H661,1.06
12,NCI-H1299,1.08
13,NCI-H1563,0.884
14,ABC-1,1.28
15,NCI-H358,0.977
16,NCI-H650,0.979

# Same assay, conditions: first compound 0.1 µM
row,Cell Line,relative viability
1,NCI-H1623,0.793
2,NCI-H727,0.693
3,NCI-H1650,1.3
4,EBC-1,0.0934
5,NCI-H1703,0.347
6,NCI-H1993,0.785
7,SW 1573,0.812
8,NCI-H838,0.988
9,LCLC-103H,0.749
10,NCI-H520,0.704
11,NCI-H2126,1.25
12,EMC-BAC-2,0.952
13,NCI-H2085,0.985
14,Calu-6,0.866
15,HCC-366,0.975
16,NCI-H1666,0.982

row,Cell Line,relative viability
1,NCI-H596,0.744
2,NCI-H2087,1.15
3,NCI-H2342,1.04
4,SK-MES-1,1.02
5,H3255,0.891
6,COR-L23,0.903
7,IA-LM,1.09
8,A549,0.886
9,SW 900,0.875
10,NCI-H661,1.06
11,NCI-H1299,1.06
12,NCI-H1563,0.886
13,ABC-1,1.01
14,NCI-H358,0.657
15,NCI-H650,0.993

# Same assay, conditions: first compound 0.3162 µM
row,Cell Line,relative viability
1,NCI-H1623,0.882
2,NCI-H727,0.877
3,NCI-H1650,0.933
4,EBC-1,0.102
5,NCI-H1703,0.248
6,NCI-H1993,0.733
7,SW 1573,0.728
8,NCI-H838,1.02
9,LCLC-103H,0.736
10,NCI-H520,0.524
11,NCI-H2126,1.11
12,EMC-BAC-2,0.973
13,NCI-H2085,0.994
14,Calu-6,0.824
15,HCC-366,0.907
16,NCI-H1666,1.02

row,Cell Line,relative viability
1,NCI-H596,0.84
2,NCI-H2087,0.981
3,NCI-H2342,1.07
4,SK-MES-1,0.819
5,H3255,0.875
6,COR-L23,1.02
7,IA-LM,0.946
8,A549,0.843
9,SW 900,0.798
10,NCI-H661,0.935
11,NCI-H1299,0.717
12,NCI-H1563,0.892
13,ABC-1,0.813
14,NCI-H358,0.73
15,NCI-H650,1

# Same assay, conditions: first compound 1 µM
row,Cell Line,relative viability
1,NCI-H1623,0.676
2,NCI-H727,1.08
3,NCI-H1650,1.02
4,EBC-1,0.0999
5,NCI-H1703,0.356
6,NCI-H1993,0.714
7,SW 1573,0.763
8,NCI-H838,1.07
9,LCLC-103H,0.847
10,NCI-H520,0.392
11,NCI-H2126,1.2
12,EMC-BAC-2,1.01
13,NCI-H2085,0.881
14,Calu-6,0.942
15,HCC-366,0.965
16,NCI-H1666,1.02

row,Cell Line,relative viability
1,NCI-H596,0.639
2,LK-2,1.09
3,NCI-H2087,1.03
4,NCI-H2342,1.09
5,SK-MES-1,0.828
6,H3255,0.777
7,COR-L23,1
8,IA-LM,0.923
9,A549,0.845
10,SW 900,0.768
11,NCI-H661,1.06
12,NCI-H1299,1.16
13,NCI-H1563,0.881
14,ABC-1,1.08
15,NCI-H358,0.663
16,NCI-H650,1.13

# Compound: CCn1c(-c2nonc2N)nc2c(C#CC(C)(C)O)ncc(OC[C@H]3CCCNC3)c21 + Nc1nc2[nH]cc(CCc3ccc(C(=O)N[C@@H](CCC(=O)O)C(=O)O)cc3)c2c(=O)[nH]1 [Pemetrexed] (partner 0.2 µM)
# Test: as above
# Details: first compound 0.01 µM
# Procedure, shortened: as §1
row,Cell Line,relative viability
1,NCI-H522,0.989
2,NCI-H1650,0.361
3,NCI-H1993,0.642
4,SW 1573,0.772
5,NCI-H838,0.248
6,LCLC-103H,0.449
7,NCI-H520,0.565
8,NCI-H2126,0.706
9,EMC-BAC-2,0.391
10,NCI-H2085,0.934
11,HCC-366,0.183
12,NCI-H1666,0.865
13,NCI-H596,0.48
14,LK-2,0.277
15,NCI-H2087,0.614
16,NCI-H2342,0.751
17,SK-MES-1,0.971
18,H3255,0.543
19,COR-L23,0.212
20,HCC-44,0.633
21,SW 900,0.488
22,NCI-H1648,0.62
23,NCI-H661,0.903
24,NCI-H1792,0.759
25,NCI-H1563,0.76
26,NCI-H358,0.231
27,NCI-H650,0.957

# Same assay, conditions: first compound 0.03162 µM
row,Cell Line,relative viability
1,NCI-H522,1.02
2,NCI-H1650,0.352
3,NCI-H1993,0.509
4,SW 1573,0.773
5,NCI-H838,0.251
6,LCLC-103H,0.498
7,NCI-H520,0.686
8,NCI-H2126,0.692
9,EMC-BAC-2,0.427
10,NCI-H2085,0.88
11,HCC-366,0.179
12,NCI-H1666,0.857
13,LK-2,0.333
14,NCI-H2342,0.73
15,SK-MES-1,0.945
16,H3255,0.571
17,COR-L23,0.207
18,HCC-44,0.649
19,SW 900,0.502
20,NCI-H1648,0.756
21,NCI-H661,0.937
22,NCI-H1792,0.684
23,NCI-H1563,0.674
24,NCI-H358,0.192
25,NCI-H650,0.862

# Same assay, conditions: first compound 0.1 µM
row,Cell Line,relative viability
1,NCI-H522,0.915
2,NCI-H1650,0.369
3,NCI-H1993,0.516
4,SW 1573,0.765
5,NCI-H838,0.238
6,LCLC-103H,0.476
7,NCI-H520,0.577
8,NCI-H2126,0.684
9,EMC-BAC-2,0.443
10,NCI-H2085,0.914
11,HCC-366,0.195
12,NCI-H1666,0.782
13,NCI-H596,0.443
14,LK-2,0.269
15,NCI-H2087,0.646
16,NCI-H2342,0.767
17,SK-MES-1,0.947
18,H3255,0.618
19,COR-L23,0.202
20,HCC-44,0.661
21,SW 900,0.465
22,NCI-H1648,0.759
23,NCI-H661,0.938
24,NCI-H1792,0.632
25,NCI-H1563,0.678
26,NCI-H358,0.176
27,NCI-H650,0.988

# Same assay, conditions: first compound 0.3162 µM
row,Cell Line,relative viability
1,NCI-H522,0.95
2,NCI-H1650,0.359
3,NCI-H1993,0.553
4,SW 1573,0.646
5,NCI-H838,0.225
6,LCLC-103H,0.456
7,NCI-H520,0.523
8,NCI-H2126,0.731
9,EMC-BAC-2,0.43
10,NCI-H2085,0.873
11,HCC-366,0.172
12,NCI-H1666,0.885
13,NCI-H596,0.47
14,LK-2,0.204
15,NCI-H2087,0.615
16,NCI-H2342,0.754
17,SK-MES-1,0.909
18,H3255,0.536
19,COR-L23,0.187
20,HCC-44,0.577
21,SW 900,0.385
